The test system of one series is HeLa cells. The following applies: human.
The subject of series [1] is Herpes Simplex Virus 1 (HSV-1, Strain E-377). In words: microbe, parasite or virus in culture. The class given is cell-based. The following applies: Human alphaherpesvirus 1, HFF, 72 h.
The test system of a further series is Junin (JUNV). Kind of series: microbe, parasite or virus in culture. In kind it is cell-based, Junin virus. The following applies: Mammarenavirus juninense.
For another series, the system named is Ebola virus. The following applies: cited from earlier work.
Series [2] addresses purified human cathepsin B (Homo sapiens, UniProt P07858). The class given is biochemical. The following applies: 4, 8, 16, 33, or 66 μM; without pre-incubation; pH 5.8.
Series [3] is described as follows: in vitro. The following applies: human.
The target in another series is cathepsin B (Homo sapiens, UniProt P07858). The class given is binding.
The next series deals with Rabies (Strain Flury). In words: microbe, parasite or virus in culture. The class given is cell-based. The note with it: Lyssavirus rabies, BHK-21, 120 h.
For series [4], the system named is RAW264.7 cells treated with PA + FP59. The class given is cell-based, mouse.
Another series relates to Poliovirus: WM3. In words: microbe, parasite or virus in culture. The class given is cell-based, Poliovirus 3. The note with it: Enterovirus C, LLC-MK2.
Series [5] is described as follows: in vitro. The following applies: African green monkey.
Series [6] concerns Venezuelan equine encephalitis virus (VEEV, Strain TC-83). Kind of series: microbe, parasite or virus in culture. The class given is cell-based.
The nature of series [7]: in vitro. The following applies: hamster.
In series [8] the test system is RAW264.7 cells treated with anthrax lethal toxin (PA + LF).
A short description of series [9]: in vitro. The following applies: rhesus monkey.
For another series, the system named is caspase-1. In kind it is cell-based, mouse.
For another series, the system named is Chikungunya (CHIV). Kind of series: microbe, parasite or virus in culture. The class given is cell-based.
Series [10] concerns PA83 binding to RAW264.7 cells. In kind it is cell-based, mouse.
For another series, the target named is LF (Bacillus anthracis, UniProt P15917). The class given is biochemical.
The test system of series [11] is acidic vesicles in RAW264.7 cells. The class given is cell-based, mouse. The note with it: AQ 1 h, 500 ng/ml PA 1 h.
Series [12] concerns Plasmodium falciparum phosphoethanolamine methyltransferase. The following applies: cited from earlier work.
The test system of series [13] is anthrax toxin (LF + PA) lethality. Also noted: species or system Sprague-Dawley rats. The note with it: rat, in vivo.
The next series concerns Ebola. The note with it: in vivo; cited from earlier work.
The next series concerns Ebola virus (Kikwit). Kind of series: microbe, parasite or virus in culture. In kind it is cell-based. The following applies: Zaire ebolavirus, HeLa.
For series [14], the system named is Respiratory syncytial virus (RSV): Strain A-2. Kind of series: microbe, parasite or virus in culture. The class given is cell-based. The following applies: human respiratory syncytial virus, HEp-2.
Series [15] deals with RAW264.7 cells treated with Cholera toxin. In words: cells. The class given is cell-based. The following applies: Mus musculus, RAW264.7, 6 h.
A further series relates to Ebola virus (EBOV). Kind of series: microbe, parasite or virus in culture. The class given is cell-based. The following applies: Zaire ebolavirus, HFF-1, 48 h.
The subject of series [16] is C32 cells treated with diphtheria toxin. The class given is cell-based, human.
Series [17] deals with Human Cytomegalovirus (CMV, Strain AD169). In words: microbe, parasite or virus in culture. In kind it is cell-based. The following applies: Human betaherpesvirus 5, AD169, HFF, 336 h.
The next series deals with MEK-2. In kind it is cell-based, mouse.
The subject of series [18] is RAW264.7 cells treated with Pseudomonas aeruginosa Exotoxin A. In words: cells. The following applies: Mus musculus, RAW264.7, 6 h. In kind it is cell-based.
Series [19] relates to RAW264.7 cells treated with Clostridium difficile toxin B. Kind of series: cells. In kind it is cell-based. The following applies: Mus musculus, RAW264.7, 6 h.
The next series concerns SARS CoV Strain Urbani. In words: microbe, parasite or virus in culture. The class given is cell-based, SARS coronavirus. The following applies: Severe acute respiratory syndrome coronavirus, Vero 76.
In the next series the test system is endosomal acidification. The following applies: cited from earlier work.
Series [20] in a line: in vitro. The following applies: human. The source holds these as a separate data set.
Series [21] concerns RAW264.7 cells treated with anthrax lethal toxin (PA + LF). In words: cells. The note with it: Mus musculus, RAW264.7, read-out: EC50, reduction of anthrax toxin-mediated cytotoxicity.
For series [22] the following is noted: human, in vivo, cited from earlier work.
Series [23] relates to host lysosomal cathepsin B. The following applies: cited from earlier work.

LF, sequence (P15917 34-809 limits assumed): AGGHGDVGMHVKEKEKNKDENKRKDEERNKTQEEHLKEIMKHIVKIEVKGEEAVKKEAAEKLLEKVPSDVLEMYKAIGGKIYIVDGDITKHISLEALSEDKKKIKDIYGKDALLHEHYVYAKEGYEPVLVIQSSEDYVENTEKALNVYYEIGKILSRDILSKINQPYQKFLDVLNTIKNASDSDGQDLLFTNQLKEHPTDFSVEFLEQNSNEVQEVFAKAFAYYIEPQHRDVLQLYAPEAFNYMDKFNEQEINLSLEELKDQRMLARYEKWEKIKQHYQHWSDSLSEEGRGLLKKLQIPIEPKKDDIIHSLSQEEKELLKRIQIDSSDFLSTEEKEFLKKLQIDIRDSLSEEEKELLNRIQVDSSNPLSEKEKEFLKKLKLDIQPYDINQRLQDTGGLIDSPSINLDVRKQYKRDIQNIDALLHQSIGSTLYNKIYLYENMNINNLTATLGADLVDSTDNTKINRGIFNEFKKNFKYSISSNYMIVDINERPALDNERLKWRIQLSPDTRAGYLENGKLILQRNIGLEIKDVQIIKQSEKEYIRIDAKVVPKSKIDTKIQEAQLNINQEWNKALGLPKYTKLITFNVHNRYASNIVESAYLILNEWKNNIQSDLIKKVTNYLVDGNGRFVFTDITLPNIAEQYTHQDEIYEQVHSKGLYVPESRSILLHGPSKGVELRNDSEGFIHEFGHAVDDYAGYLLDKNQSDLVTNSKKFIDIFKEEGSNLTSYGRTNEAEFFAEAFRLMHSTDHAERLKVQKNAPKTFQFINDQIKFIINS

As to `CCN(CC)Cc1cc(Nc2ccnc3cc(Cl)ccc23)ccc1O` [AQ, Amodiaquine], the CC50 in the series with HeLa cells was more than 50 µM; in the series “in vitro [3]” (CC50), 50 µM; in the series “in vitro [5]”, 32 µM; in “in vitro [7]” it was more than 10 µM; in “in vitro [9]”, more than 100 µM. The half-maximal effective concentration (EC50) in [1] is more than 60 µM; with Junin (JUNV), 16.9 µM; in the series with Rabies (Strain Flury), 5.7 µM; in the series on Poliovirus: WM3 it was more than 100 µM; in [6], 3.2 µM; in the series on Chikungunya (CHIV), 18.4 µM. The EC50 in the series on Ebola virus (Kikwit) was 2.4 µM; in the series on Ebola virus (Kikwit) (24 h) it was 2 µM; in the series on Ebola virus (Kikwit) (48 h), 4 µM; in series [14], 32 µM; in [15], more than 66.7 µM; with Ebola virus (EBOV), 2.6 µM. For the same compound, the concentration giving a half-maximal response (EC50) in series [17] was more than 60 µM; in series [18] it was more than 66.7 µM; in series [19], 4.6 µM; in the series on SARS CoV Strain Urbani, 2.4 µM. Further, the “Ebola virus pathogenicity in cells” value with Ebola virus is “inhibit Ebola virus pathogenicity in cells”. In addition, the “inhibition of purified human cathepsin B activity” value in series [2] is on record as “directly inhibit cathepsin B activity in a dose dependent manner”. In addition, the “binding to cathepsin B (STD difference spectrum)” value on cathepsin B (2 mM AQ, 20 μM cathepsin B (100:1)) is on record as “binding to the enzyme”. The “STD effect, atom H4” value at cathepsin B (relative to H4 atom (100%)) stood at 100%. Moreover, the “STD effect, atom H5” value on cathepsin B (relative to H4 atom (100%)) is listed as 97%. In addition, in [4], the “sensitivity of cells to PA + FP59” value is “less sensitive”. For the same compound, the “protection of host cells against anthrax toxin killing (cell viability, MTT)” value (“protection of host cells” below) in series [8] was “completely protect”. Also, the “sensitivity of host cells to PA83 + LF and PA63 + LF” value in series [8] was “equally reduces sensitivity”. Moreover, the “active caspase-1 after LF-PA treatment (FLICA)” value in the series on caspase-1 is listed as “not detected”. Further, in series [10], the “binding of PA83 to cells” value is recorded as “did not block”. Besides, the “proteolytic processing of PA to generate PA63” value in series [10] is listed as “did not block”. Moreover, the “proteolytic activity of LF on MAPKK peptide (emission at 523 nm)” value at LF is given as “does not block”. The “cell-associated Lysosensor fluorescence (acidic organelles)” value in series [11] is “markedly decreased”. Further, the “inhibition of Plasmodium falciparum phosphoethanolamine methyltransferase” value in series [12] was “inhibits”. For the same compound, the “rats saved after lethal anthrax toxin challenge” value in series [13] amounted to 40%. The “survival after lethal anthrax toxin challenge” value in [13] was “all survived”. Further, in the series with Ebola, the “reduction of Ebola mortality risk” value is reported as 31%. The “inhibition of diphtheria toxin cell killing (multiplex hit)” value in series [16] was “inhibited”. Further, the “LF-PA-mediated cleavage of MEK2” value in the series with MEK-2 is given as “completely prevented”.
Regarding `CCN(CC)CCCC(C)Nc1ccnc2cc(Cl)ccc12` (centres unmarked) [CQ, Chloroquine], in the series on Ebola virus, the “Ebola virus pathogenicity in cells” value was “inhibit Ebola virus pathogenicity in cells”. Also, the “inhibition of purified human cathepsin B activity” value in series [2] is listed as “weaker inhibitors”. The results for the CC50 in the series “in vitro [3]” (CC50) and in the series “in vitro [20]” were 100 µM and 70 µM, respectively. Further, the endosomal acidification entry with endosomal acidification was “prevent endosomal acidification”. Moreover, the values for the EC50 with Ebola virus (Kikwit) (48 h) and with Ebola virus (EBOV) were 4.8 µM and 2.5 µM, respectively. For the same compound, the “inhibition of diphtheria toxin cell killing (multiplex hit)” value in series [16] was “inhibited”.
Turning to `C=C[C@H]1C[N@@]2CC[C@H]1C[C@@H]2[C@@H](O)c1ccnc2ccccc12` [Cinchonine], the “protection of host cells” value in series [8] is reported as “none”.
For the compound `CCNCc1cc(Nc2ccnc3cc(Cl)ccc23)ccc1O` [DEAQ, Desethyl-Amodiaquine], the 50% effective concentration (EC50) amounted to 13.8 µM with Junin (JUNV); 5 µM in series [21]; 17.3 µM in the series on Chikungunya (CHIV); 2 µM in the series with Ebola virus (Kikwit) (24 h); 4 µM with Ebola virus (Kikwit) (48 h); 2.1 µM in the series with Ebola virus (EBOV). For the same compound, in series [2], the “inhibition of purified human cathepsin B activity” value was “directly inhibit cathepsin B activity in a dose dependent manner”. Further, the CC50 is 50 µM in the series “in vitro [3]” (CC50); more than 50 µM in the series “in vitro [3]” (CC50, 24 h); more than 50 µM in “in vitro [3]” (CC50, 48 h). For the same compound, the terminal half-life in series [22] (po) was 220 to 432 h. The “Cmax (maximal amounts of drug in the blood after oral administration)” value in series [22] is reported as “low μM range”.
For the compound `CCNCCCC(C)Nc1ccnc2cc(Cl)ccc12` (centres unmarked) [DECQ, Desethyl-Chloroquine], the “inhibition of purified human cathepsin B activity” value in series [2] was “weaker inhibitors”. Further, the CC50 amounted to 100 µM in “in vitro [3]” (CC50) and 70 µM in “in vitro [20]”. The concentration giving a half-maximal response (EC50) was determined as 7.3 µM with Ebola virus (Kikwit) (48 h) and 3.2 µM in the series on Ebola virus (EBOV).
As to `COc1cc(NC(C)CCCN)c2ncccc2c1` (centres unmarked) [Primaquine], the “protection of host cells” value in [8] was “none”.
For the compound `C=C[C@H]1C[N@@]2CC[C@H]1C[C@@H]2[C@@H](O)c1ccnc2ccc(OC)cc12` [Quinidine], the “protection of host cells” value in series [8] is given as “none”.
For the compound CA-074, in [23], the “accumulation of PA pores in late endosomes” value is given as “elevated accumulation”, the “cellular sensitivity to LF-PA” value is on record as “reduction of cellular sensitivity” and the “release of LF from the late endosomes into the cytoplasm” value is “inability of LF to be released”.

Source of the values: paper PMC4550849 (Scientific Reports, 2015).
